# Laboratory results published in US10732173B2, “Use of aldehyde dehydrogenase as biomarker for beta-cell dysfunction and loss” (THE TRUSTEES OF COLUMBIA UNIVERSITY IN THE CITY OF NEW YORK, priority 2015, dated 2020).
# Tested on: MIN6 cells overexpressing ALDH1A3
# Experiment: Glucose-stimulated insulin secretion in the presence of the ALDH inhibitor DEAB
# Assay type: cell-based, mouse
# Conditions: MIN6 cells overexpressing ALDH1A3, in the presence of DEAB (FIG. 12F)
compound,measurement,value
"CCN(CC)c1ccc(C=O)cc1 [DEAB, N,N-diethylaminobenzaldehyde]",effect on insulin secretion,did not detect an effect
